Results taken from patent US11077115B2, “Rorgamma modulators and uses thereof” (Genfit, priority 2017, dated 2021).

Legend:
[1] = molecular target: T1, RORγt ligand-binding domain (RORγt-LBD) (Homo sapiens, UniProt P51449); assay: Time-resolved FRET (TR-FRET) RORγt coactivator assay (RIP140 peptide displacement); type: biochemical; details: ligand-dependent coactivator-RORγt binding
T1 construct: 20 nM recombinantly expressed RORγ-LBD fused to GST
T1 sequence (P51449 269-508 limits assumed): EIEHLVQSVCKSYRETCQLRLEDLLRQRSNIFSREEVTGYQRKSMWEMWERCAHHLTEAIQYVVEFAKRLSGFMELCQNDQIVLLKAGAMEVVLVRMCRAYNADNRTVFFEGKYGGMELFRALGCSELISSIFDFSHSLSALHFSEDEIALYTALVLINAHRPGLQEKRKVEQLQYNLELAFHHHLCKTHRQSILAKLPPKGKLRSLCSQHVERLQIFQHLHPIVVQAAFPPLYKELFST
From the text: Time-resolved FRET (TR-FRET) RORγt coactivator assay was used to identify RORγ modulator compounds with ligand-dependent coactivator displacement. The assay uses a d2-labeled anti-GST antibody, synthetic N-terminally biotinylated peptide which is derived from nuclear receptor coactivator protein RIP140, and a RORγt ligand-binding domain (RORγt-LBD) that is tagged with glutathione-S-transferase (GST). The influence of compounds on the RORγ-peptide interaction relies on the binding dependent energy transfer from a donor to an acceptor fluorophor attached to the binding partner of interest. […] For reduction of background from compound fluorescence, TR-FRET method makes use of generic fluorophore labels and time resolved detection.
The assays were done in a final volume of 20 μl in a 384 well plate in a CHAPS buffer (2 mM CHAPS; 1 mM DTT, 2 mM EDTA; 0.1% BSA), containing 20 nM recombinantly expressed RORγ-LBD fused to GST, 30 nM N-terminally biotinylated peptide, 1 nM streptavidin-terbium conjugate and 20 nM d2 labeled-anti-GST. Test compounds were diluted using 10 mM stock solution. The range of the final compound concentrations used in this test was from 0.3 nM to 30 μM (logarithmic scale). DMSO content of the samples was kept at 1%. The assay was equilibrated for 2 hours in the dark at room temperature in 384 well plates (Falcon). The signal was detected by an Ultra384 reader (TECAN). […] Compounds that promote coactivator displacement induce a concentration-dependent decrease in time-resolved fluorescent signal. Data were collected and analyzed using GraphPad Prism software (GraphPad Software V5.02, San Diego Calif. USA). IC50 in μM and E max in % were reported for each compound.

human RORγt [2] = molecular target: T2, human RORγt (Homo sapiens, UniProt P51449); assay: IL-17 secretion from EL4 murine lymphoma overexpressing human RORγt; type: cell-based; parameters: V5-His (named only through the vector pcDNA3.1D/V5-His-TOPO); expressed in transfected cells; details: IL-17 secretion inhibition in human RORγt-transfected EL4 Tcells, PMA/ionomycin stimulation
T2 sequence (P51449 1-497 isoform P51449-2): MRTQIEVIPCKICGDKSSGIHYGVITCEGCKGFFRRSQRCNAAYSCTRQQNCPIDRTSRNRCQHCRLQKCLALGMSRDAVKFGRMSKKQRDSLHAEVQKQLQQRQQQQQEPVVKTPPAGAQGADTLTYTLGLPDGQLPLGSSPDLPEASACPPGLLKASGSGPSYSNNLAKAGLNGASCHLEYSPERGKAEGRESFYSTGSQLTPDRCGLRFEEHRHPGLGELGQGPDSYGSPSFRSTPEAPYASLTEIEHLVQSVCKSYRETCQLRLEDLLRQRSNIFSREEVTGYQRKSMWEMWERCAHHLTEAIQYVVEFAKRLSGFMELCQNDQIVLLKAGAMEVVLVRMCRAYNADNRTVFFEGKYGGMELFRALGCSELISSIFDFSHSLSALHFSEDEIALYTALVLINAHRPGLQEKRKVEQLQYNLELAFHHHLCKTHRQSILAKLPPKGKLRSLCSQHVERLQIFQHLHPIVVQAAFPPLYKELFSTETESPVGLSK
Description: Murine EL-4 lymphoma cell line overexpressing human RORγt was used in this functional assay to assess compound ability to inhibit IL-17 cytokine secretion.
EL-4 cells are maintained in a standard culture medium RPMI supplemented with 10% fetal calf serum, 1% sodium pyruvate, 1% essential amino acids and 1% antibiotics at 37° C. in a humidified atmosphere of 5% CO2 and 95% air. Culture medium was changed every 2 days. EL4 cells were transfected with a plasmid encoding hRORγt (sequence identical to published sequence NM 001001523). […] Briefly, 1 μg of DNA/1 million cells was served to transfect EL-4 cells. Cell/DNA suspension was transferred into certified cuvette and the electroporation of RORγt plasmid was carried out using appropriate Nucleofector® program.
Cells were seeded in 96 well plates at a density of 150000 cells/well then treated with compounds of this invention at indicated concentrations and incubated for 24 hours at 37° C. in a humidified atmosphere of 5% CO2 and 95% air. EL-4 cells were pretreated with test compounds (RORγ modulators) and stimulated with PMA (10 ng/mL) and ionomycin (1 μM final concentration) in the presence of test compound concentrations for additional 24 h at 37° C. in a humidified atmosphere of 5% CO2 and 95% air. Subsequently, supernatants were collected (after centrifugation at 300 g for 10 minutes) to determine the concentrations of IL-17 by HTRF (CisBio, France) or ELISA (R&D Systems Europe) according to the manufacturer's protocols.

human RORγt [3] = molecular target: T2, human RORγt; assay: RORE Luciferase/RORγt transactivation assay (IL-17 promoter luciferase reporter in COS-7 cells); type: cell-based; parameters: V5-His (named only through the vector pcDNA3.1D/V5-His-TOPO); expressed in transfected cells; host or cells: COS-7 (monkey kidney); details: RORγt activity inhibition, luciferase activity in transfected COS-7 cells, 20 h
Outline: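 COS-7 cells co-transfected with human RORγt and luciferase reporter driven by 4.3 kb IL-17 promoter with CNS enhancer, seeded in serum-free, phenol red-free DMEM. Compounds added at 0.3% DMSO final; luciferase read by Steady-Glo luminescence. IC50 (μM) and Emax (%) reported.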

SMILES | IC50 [1] [nM] | IC50 (human RORγt [2]) [nM] | IC50 (human RORγt [3]) [nM]
COc1ccc(C(NC(=O)C2(c3ccc(N4CCS(=O)(=O)CC4)cc3)CC2)c2ccc(C)o2)c(N2CCCCCC2)c1 (stereo not drawn) [Cpd. 46, N-{[2-(azepan-1-yl)-4-methoxyphenyl](5-methylfuran-2-yl)methyl}-1-[4-(1,1-dioxo-1-thiomorpholin-4-yl)phenyl]cyclopropane-1-carboxamide] | 100 to 1000 | < 1000 | < 100
COc1ccc(C(NC(=O)C2(c3cnc(N4CCS(=O)(=O)CC4)nc3)CC2)c2ccc(C)o2)c(C)c1 (stereo not drawn) [Cpd. 57, 1-[2-(1,1-dioxo-1-thiomorpholin-4-yl)pyrimidin-5-yl]-N-[(4-methoxy-2-methylphenyl)(5-methylfuran-2-yl)methyl]cyclopropane-1-carboxamide] | – | 1000 to 10000 | 100 to 1000
Cc1ccc(C(NC(=O)Cc2ccc(N3CCS(=O)(=O)CC3)cc2C)c2ccc(C)o2)c(C)c1 (stereo not drawn) [Cpd. 19, N-[(2,4-dimethylphenyl)(5-methylfuran-2-yl)methyl]-2-[4-(1,1-dioxo-1-thiomorpholin-4-yl)-2-methylphenyl]acetamide] | < 1000 | < 1000 | < 100
Cc1ccc(C(NC(=O)C2(c3ccc(N4CCS(=O)(=O)CC4)c(C)n3)CC2)c2ccc(C)o2)c(C)c1 (stereo not drawn) [Cpd. 71, N-[(2,4-dimethylphenyl)(5-methylfuran-2-yl)methyl]-1-[5-(1,1-dioxo-1-thiomorpholin-4-yl)-6-methylpyridin-2-yl]cyclopropane-1-carboxamide] | < 1000 | 100 to 1000 | < 100
COc1ccc(C(NC(=O)Cc2ccc(N3CCS(=O)(=O)CC3)c(C)c2)c2ccc(C)o2)c(N(C)C)c1 (stereo not drawn) [Cpd. 15, N-{[2-(dimethylamino)-4-methoxyphenyl](5-methylfuran-2-yl)methyl}-2-[4-(1,1-dioxo-1-thiomorpholin-4-yl)-3-methylphenyl]acetamide] | < 1000 | < 1000 | 100 to 1000
Cc1ccc(C(NC(=O)Cc2ccc(N3CCS(=O)(=O)CC3)cc2C)c2ccc(C)o2)c(Br)c1 (stereo not drawn) [Cpd. 21, N-[(2-bromo-4-methylphenyl)(5-methylfuran-2-yl)methyl]-2-[4-(1,1-dioxo-1-thiomorpholin-4-yl)-2-methylphenyl]acetamide] | < 1000 | 100 to 1000 | < 100
O=C(Cc1ccc(N2CCS(=O)(=O)CC2)cc1)NC(c1ccccc1)c1ccccc1N1CCCCC1 (stereo not drawn) [Cpd. 1, 2-[4-(1,1-dioxo-1-thiomorpholin-4-yl)phenyl]-N-{phenyl[2-(piperidin-1-yl)phenyl]methyl}acetamide] | < 1000 | 100 to 1000 | 100 to 1000
Cc1ccc(C(NC(=O)Cc2ccc(N3CCS(=O)(=O)CC3)cc2C)c2ccc(C)o2)c(N2CCCCC2)c1 (stereo not drawn) [Cpd. 18, 2-[4-(1,1-dioxo-1-thiomorpholin-4-yl)-2-methylphenyl]-N-{[4-methyl-2-(piperidin-1-yl)phenyl](5-methylfuran-2-yl)methyl}acetamide] | < 1000 | < 1000 | < 100
Cc1ccc(C(NC(=O)Cc2ccc(N3CCS(=O)(=O)CC3)c(C)c2)c2ccccc2)c(N2CC3CC3C2)c1 (stereo not drawn) [Cpd. 23, N-[(2-{3-azabicyclo[3.1.0]hexan-3-yl}-4-methylphenyl)(phenyl)methyl]-2-[4-(1,1-dioxo-1-thiomorpholin-4-yl)-3-methylphenyl]acetamide] | 100 to 1000 | 100 to 1000 | < 100
Cc1ccc(C(NC(=O)C2(c3ccc(N4CCS(=O)(=O)CC4)cc3)CC2)c2ccc(C)o2)c(C)c1 (stereo not drawn) [Cpd. 31, N-[(2,4-dimethylphenyl)(5-methylfuran-2-yl)methyl]-1-[4-(1,1-dioxo-1-thiomorpholin-4-yl)phenyl]cyclopropane-1-carboxamide] | < 1000 | < 1000 | < 100
Cc1ccc(C(NC(=O)Cc2ccc(N3CCOCC3)nc2)c2ccc(C)o2)c(N2CCCCC2)c1 (stereo not drawn) [Cpd. 25, N-{[4-methyl-2-(piperidin-1-yl)phenyl](5-methylfuran-2-yl)methyl}-2-[6-(morpholin-4-yl)pyridin-3-yl]acetamide] | < 1000 | 100 to 1000 | 100 to 1000
COc1ccc(C(NC(=O)Cc2ccc(N3CCS(=O)(=O)CC3)c(C)c2)c2ccc(C)o2)c(N2CCC(C)CC2)c1 (stereo not drawn) [Cpd. 13, 2-[4-(1,1-dioxo-1-thiomorpholin-4-yl)-3-methylphenyl]-N-{[4-methoxy-2-(4-methylpiperidin-1-yl)phenyl](5-methylfuran-2-yl)methyl}acetamide] | 100 to 1000 | 100 to 1000 | 100 to 1000
Cc1ccc(C(NC(=O)Cc2ccc(N3CCS(=O)(=O)CC3)cc2)c2ccccc2)c(Br)c1 (stereo not drawn) [Cpd. 9, N-[(2-bromo-4-methylphenyl)(phenyl)methyl]-2-[4-(1,1-dioxo-1-thiomorpholin-4-yl)phenyl]acetamide] | < 1000 | 100 to 1000 | 100 to 1000
Cc1ccc(C(NC(=O)Cc2ccc(N3CCS(=O)(=O)CC3)nc2)c2ccc(C)o2)c(N2CCCCC2)c1 (stereo not drawn) [Cpd. 27, 2-[6-(1,1-dioxo-1-thiomorpholin-4-yl)pyridin-3-yl]-N-{[4-methyl-2-(piperidin-1-yl)phenyl](5-methylfuran-2-yl)methyl}acetamide] | < 1000 | < 1000 | < 100
Cc1ccc(C(NC(=O)C2(c3ncc(N4CCS(=O)(=O)CC4)cc3C)CC2)c2ccc(C)o2)c(C)c1 (stereo not drawn) [Cpd. 72, N-[(2,4-dimethylphenyl)(5-methylfuran-2-yl)methyl]-1-[5-(1,1-dioxo-1-thiomorpholin-4-yl)-3-methylpyridin-2-yl]cyclopropane-1-carboxamide] | – | < 1000 | < 100
Cc1ccc(C(NC(=O)C2(c3cc(N4CCS(=O)(=O)CC4)ccc3C)CC2)c2ccc(C)o2)c(C)c1 (stereo not drawn) [Cpd. 70, N-[(2,4-dimethylphenyl)(5-methylfuran-2-yl)methyl]-1-[5-(1,1-dioxo-1-thiomorpholin-4-yl)-2-methylphenyl]cyclopropane-1-carboxamide] | 100 to 1000 | 1000 to 10000 | –
